Measurements reported in US20240246920A1, “TRIAZOLE DERIVATIVES WITH ANTIFUNGAL ACTIVITY” (King's College London, priority 2020, published 2024).
In brackets after ≈: the same amount, converted by molar mass.

Assays:
C. glabrata NCPF8018 = assay: Candida panel MIC, serial dilution in 96-well plates; type: cell-based, Candida glabrata; conditions: Nakaseomyces glabratus, NCPF8018; Table 4, common panel; 24 hours, ≥50% inhibition; read-out: MIC C. glabrata NCPF8018
Experimental: (§1) The minimum inhibitory concentration of test compounds were determined in a panel of Candida species (see Table 4 below), using the a serial dilution method in 96-well plates using the following protocol.
(§2) Starter cultures of fungal strains to be tested were grown in 3 mL of RPMI 2% glucose media incubated at 37° C. with shaking at 200 rpm overnight. The culture media used was 900 mL H2O; 10.4 g RPMI 1640 (with L-glutamine and a pH indicator but without bicarbonate); 34.5 g MOPS and 18 g glucose. The pH of the media was adjusted to 7.0 with 1 M sodium hydroxide.
(§3) Solutions of the compound to be tested were prepared by dissolving the compound in DMSO and subsequently into media to the desired concentrations. […] The last two rows of each plate were control rows containing the culture media alone and the media plus fungi.
(§4) The fungi starter cultures were diluted 1:10 in water in cuvettes. This was then further diluted to an optical density (OD600) of 0.01 in media. 100 μL of the fungi was added to each well giving a starting concentration of fungus of 0.5-5×10^5/mL. One species of fungus was used on each plate. The plates were then held at 37° C. for 24 hours.
(§5) A plate reader was used to measure growth in each well at OD530 nm and the MIC was determined for each test compound. The MIC is defined as the lowest concentration giving rise to inhibition of ≥50% of that of the drug-free control well containing the fungus and media.

C. auris 8984 = assay: as above; type: cell-based, Candida auris; conditions: Candidozyma auris, 8984; Table 4, extended panel; 24 hours, ≥50% inhibition; read-out: MIC C. auris 8984
Experimental: as §1, §2, §3, §4, §5
(§6) The Candida auris strains shown in Table 7 were either taken from the National Collection of Pathogenic Fungi (NCPF) or collected as part of ongoing surveillance studies. The strains were characterised as follows.

C. auris 8977 = assay: as above; type: cell-based, Candida auris; conditions: Candidozyma auris, 8977; Table 4, extended panel; 24 hours, ≥50% inhibition; read-out: MIC C. auris 8977
Experimental: as §1, §2, §3, §4, §5, §6

C. auris 8971 = assay: as above; type: cell-based, Candida auris; conditions: Candidozyma auris, 8971; Table 4, extended panel; 24 hours, ≥50% inhibition; read-out: MIC C. auris 8971
Experimental: as §1, §2, §3, §4, §5, §6

C. parapsilosis NCPF3209 = assay: microbe, parasite or virus in culture; type: cell-based, Candida parapsilosis; conditions: Lodderomyces parapsilosis, NCPF3209; Table 4, common panel; 24 hours, ≥50% inhibition; read-out: MIC C. parapsilosis NCPF3209
Experimental: as §1, §2, §3, §4, §5

C. albicans NCPF3281 = assay: Candida panel MIC, serial dilution in 96-well plates; type: cell-based, Candida albicans; conditions: Candida albicans, NCPF3281; Table 4, common panel; 24 hours, ≥50% inhibition; read-out: MIC C. albicans NCPF3281
Experimental: as §1, §2
(§7) Solutions of the compound to be tested were prepared by dissolving the compound in DMSO and subsequently into media to the desired concentrations. 200 μL of compound solution was then added to the wells of the 96-well plate using a serial dilution method row-by row of the plate to give a compound concentration gradient across the plate of from 128 μg/mL to 0.25 μg/mL. The last two rows of each plate were control rows containing the culture media alone and the media plus fungi.
as §4, §5

C. krusei NCPF3876 = assay: microbe, parasite or virus in culture; type: cell-based, Candida krusei; conditions: Pichia kudriavzevii, NCPF3876; Table 4, common panel; 24 hours, ≥50% inhibition; read-out: MIC C. krusei NCPF3876
Experimental: as §1, §2, §3, §4, §5

C. auris TDG1912 = assay: Candida panel MIC, serial dilution in 96-well plates; type: cell-based; conditions: Candidozyma auris, TDG1912; Table 4; 24 hours, ≥50% inhibition; read-out: MIC C. auris TDG1912
Experimental: as §1, §2, §7, §4, §5

Candida auris TDG1102 = assay: as above; type: cell-based; conditions: Candidozyma auris, TDG1102; Table 4, extended panel; 24 hours, ≥50% inhibition; read-out: MIC Candida auris TDG1102
Experimental: as §1, §2, §7, §4, §5

Candida auris TDG2512 = assay: as above; type: cell-based; conditions: Candidozyma auris, TDG2512; Table 4, extended panel; 24 hours, ≥50% inhibition; read-out: MIC Candida auris TDG2512
Experimental: as §1, §2, §7, §4, §5

C. tropicalis NCPF8760 = assay: as above; type: cell-based; conditions: NCPF8760, Table 4, common panel, 24 hours, ≥50% inhibition, read-out: MIC C. tropicalis NCPF8760
Experimental: as §1, §2, §7, §4, §5

Candida auris TDG2506 = assay: microbe, parasite or virus in culture; type: cell-based; conditions: Candidozyma auris, TDG2506; Table 4, extended panel; 24 hours, ≥50% inhibition; read-out: MIC Candida auris TDG2506
Experimental: as §1, §2, §3, §4, §5, §6

Candida auris TDG2211 = assay: microbe, parasite or virus in culture; type: cell-based; conditions: Candidozyma auris, TDG2211; Table 4, extended panel; 24 hours, ≥50% inhibition; read-out: MIC Candida auris TDG2211
Experimental: as §1, §2, §3, §4, §5, §6

Row | SMILES | MIC (C. glabrata NCPF8018) | MIC (C. auris 8984) | MIC (C. auris 8977) | MIC (C. auris 8971) | MIC (C. parapsilosis NCPF3209) | MIC (C. albicans NCPF3281) | MIC (C. krusei NCPF3876) | MIC (C. auris TDG1912) | MIC (Candida auris TDG1102) | MIC (Candida auris TDG2512) | MIC (C. tropicalis NCPF8760) | MIC (Candida auris TDG2506) | MIC (Candida auris TDG2211)
1 | OC(CN1CCC(N2CCC(Nc3ncc(F)cn3)CC2)CC1)(Cn1cncn1)c1ccc(F)cc1F (stereo not drawn) [Example 10, 2-(2,4-Difluorophenyl)-1-(4-((5-fluoropyrimidin-2-yl)amino)-[1,4′-bipiperidin]-1′-yl)-3-(1H-1,2,4-triazol-1-yl)propan-2-ol] | 64 µg/mL (≈ 124 µM) | 0.5 µg/mL (≈ 0.968 µM) | 1 µg/mL (≈ 1.94 µM) | 0.5 µg/mL (≈ 0.968 µM) | 0.125 µg/mL (≈ 0.242 µM) | 0.015 µg/mL (≈ 0.029 µM) | 32 µg/mL (≈ 61.9 µM) | 4 µg/mL (≈ 7.74 µM) | 4 µg/mL (≈ 7.74 µM) | 0.5 µg/mL (≈ 0.968 µM) | 64 µg/mL (≈ 124 µM) | 8 µg/mL (≈ 15.5 µM) | 64 µg/mL (≈ 124 µM)
2 | OC(CN1CCC(N2CCC(Nc3ccccc3)CC2)CC1)(Cn1cncn1)c1ccc(F)cc1F (stereo not drawn) [Example 14, 2-(2,4-difluorophenyl)-1-(4-(phenylamino)-[1,4′-bipiperidin]-1′-yl)-3-(1H-1,2,4-triazol-1-yl)propan-2-ol] | 16 µg/mL (≈ 32.2 µM) | 1 µg/mL (≈ 2.01 µM) | 0.25 µg/mL (≈ 0.503 µM) | 0.25 µg/mL (≈ 0.503 µM) | ≤ 0.125 µg/mL | ≤ 0.125 µg/mL | 4 µg/mL (≈ 8.05 µM) | 1 µg/mL (≈ 2.01 µM) | 1 µg/mL (≈ 2.01 µM) | 0.25 µg/mL (≈ 0.503 µM) | 32 µg/mL (≈ 64.4 µM) | 2 µg/mL (≈ 4.03 µM) | ≤ 0.125 µg/mL
3 | OC(CN1CC2CN(c3ncc(F)cn3)CC2C1)(Cn1cncn1)c1ccc(F)cc1F (stereo not drawn) [Example 15, 2-(2,4-difluorophenyl)-1-(5-(5-fluoropyrimidin-2-yl)hexahydropyrrolo[3,4-c]pyrrol-2(1H)-yl)-3-(1H-1,2,4-triazol-1-yl)propan-2-ol] | 1 µg/mL (≈ 2.24 µM) | 32 µg/mL (≈ 71.8 µM) | 1 µg/mL (≈ 2.24 µM) | 0.5 µg/mL (≈ 1.12 µM) | 0.125 µg/mL (≈ 0.281 µM) | 0.12 µg/mL (≈ 0.269 µM) | 4 µg/mL (≈ 8.98 µM) | 8 µg/mL (≈ 18 µM) | 8 µg/mL (≈ 18 µM) | 4 µg/mL (≈ 8.98 µM) | 8 µg/mL (≈ 18 µM) | > 128 µg/mL | 4 µg/mL (≈ 8.98 µM)
4 | OC(CN1C[C@H]2CC(Nc3ccc(Cc4ccccc4)cc3)C[C@H]2C1)(Cn1cncn1)c1ccc(F)cc1F (stereo partly drawn) [Example 16, 1-((3aR,6aS)-5-((4-benzylphenyl)amino)hexahydrocyclopenta[c]pyrrol-2(1H)-yl)-2-(2,4-difluorophenyl)-3-(1H-1,2,4-triazol-1-yl)propan-2-ol] | ≤ 0.125 µg/mL | 1 µg/mL (≈ 1.89 µM) | ≤ 0.125 µg/mL | ≤ 0.125 µg/mL | ≤ 0.125 µg/mL | ≤ 0.125 µg/mL | ≤ 0.125 µg/mL | 1 µg/mL (≈ 1.89 µM) | 1 µg/mL (≈ 1.89 µM) | ≤ 0.125 µg/mL | 1 µg/mL (≈ 1.89 µM) | 0.5 µg/mL (≈ 0.944 µM) | ≤ 0.125 µg/mL
5 | OC(CN1CCC(Nc2ccc(Cc3ccc(F)cc3)cc2)CC1)(Cn1cncn1)c1ccc(F)cc1F (stereo not drawn) [Example 30, 2-(2,4-difluorophenyl)-1-(4-((4-(4-fluorobenzyl)phenyl)amino)piperidin-1-yl)-3-(1H-1,2,4-triazol-1-yl)propan-2-ol] | ≤ 0.125 µg/mL | ≤ 0.125 µg/mL | ≤ 0.125 µg/mL | ≤ 0.125 µg/mL | ≤ 0.125 µg/mL | ≤ 0.125 µg/mL | ≤ 0.125 µg/mL | ≤ 0.125 µg/mL | ≤ 0.125 µg/mL | ≤ 0.125 µg/mL | ≤ 0.125 µg/mL | ≤ 0.125 µg/mL | ≤ 0.125 µg/mL
6 | OC(CN1CCC(Nc2ccc(OCc3ccncc3)cc2)CC1)(Cn1cncn1)c1ccc(F)cc1F (stereo not drawn) [Example 81] | 2 µg/mL (≈ 3.84 µM) | 0.125 µg/mL (≈ 0.24 µM) | 0.0156 µg/mL (≈ 0.03 µM) | 0.0156 µg/mL (≈ 0.03 µM) | 0.00781 µg/mL (≈ 0.015 µM) | 0.00781 µg/mL (≈ 0.015 µM) | 0.125 µg/mL (≈ 0.24 µM) | 0.0313 µg/mL (≈ 0.0601 µM) | 0.0625 µg/mL (≈ 0.12 µM) | 0.00781 µg/mL (≈ 0.015 µM) | 0.5 µg/mL (≈ 0.96 µM) | 0.125 µg/mL (≈ 0.24 µM) | 0.0313 µg/mL (≈ 0.0601 µM)
